Test results taken from ChEMBL document CHEMBL2073828, “The breast cancer resistance protein (Bcrp1/Abcg2) restricts exposure to the dietary carcinogen 2-amino-1-methyl-6-phenylimidazo[4,5-b]pyridine” (Cancer Res, 2003).

Assays:
[1] = biological target: T1, Broad substrate specificity ATP-binding cassette transporter ABCG2 (Mus musculus, UniProt Q7TMS5); assay: TP_TRANSPORTER: transcellular transport in MDCKII; type: functional, cell-based; conditions: dog, mdck-ii
T1 sequence (Q7TMS5 whole entry): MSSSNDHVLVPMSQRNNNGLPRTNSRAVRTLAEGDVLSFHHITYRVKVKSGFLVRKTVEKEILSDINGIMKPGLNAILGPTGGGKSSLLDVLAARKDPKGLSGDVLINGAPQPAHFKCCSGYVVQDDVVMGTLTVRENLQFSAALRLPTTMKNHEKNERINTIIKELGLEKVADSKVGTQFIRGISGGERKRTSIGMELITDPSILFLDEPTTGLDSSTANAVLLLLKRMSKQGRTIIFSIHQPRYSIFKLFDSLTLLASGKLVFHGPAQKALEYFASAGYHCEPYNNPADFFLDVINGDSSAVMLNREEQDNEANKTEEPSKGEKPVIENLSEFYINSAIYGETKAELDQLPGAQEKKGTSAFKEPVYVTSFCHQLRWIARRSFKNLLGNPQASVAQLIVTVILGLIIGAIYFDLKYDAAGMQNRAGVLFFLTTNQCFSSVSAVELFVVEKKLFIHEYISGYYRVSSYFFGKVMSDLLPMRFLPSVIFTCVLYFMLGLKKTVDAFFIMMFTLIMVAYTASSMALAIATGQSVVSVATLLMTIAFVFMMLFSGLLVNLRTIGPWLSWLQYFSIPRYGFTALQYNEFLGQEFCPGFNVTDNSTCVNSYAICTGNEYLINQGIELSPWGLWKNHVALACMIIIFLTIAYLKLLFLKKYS

[2] = biological target: T1, Broad substrate specificity ATP-binding cassette transporter ABCG2; assay: TP_TRANSPORTER: biliary excretion; type: functional, organism-based, Bile; conditions: in vivo
[3] = biological target: T1, Broad substrate specificity ATP-binding cassette transporter ABCG2; assay: TP_TRANSPORTER: intestinal excretion; type: functional, organism-based; conditions: in vivo

Measured: Activity

Cn1c(N)nc2ncc(-c3ccccc3)cc21 [2-AMINO-1-METHYL-6- PHENYLIMIDAZO[4,5- B]PYRIDINE]
substrate []: all assays above
